Experimental data published in paper PMC13210772, “Dual FLT3/MAPK14 Proteolysis-Targeting Chimera (PROTAC) Induces Potent Acute Myeloid Leukemia Cell Death” (Pharmaceuticals, 2026).

Assays:
Assay in all cases: NanoBRET CELLinib128
Format in all cases: binding
MAP3K9 = biological target: T1, MAP3K9 (Homo sapiens, UniProt P80192); details: 100% no effect, 0% complete tracer displacement, read-out: Tracer bound
T1 construct: Full-length kinase ORF (Promega, Madison, WI, USA) cloned in frame with a NanoLuc-vector was transfected into HEK293T cells; host or cells: HEK293T
Protocol: (§1) To get an impression about the binding strength of the PROTAC MA191 and the reference inhibitor MA68 to other kinases besides FLT3-ITD the binding on a kinase panel of further 128 representative protein kinases at 1 μM concentration was tested using the NanoBRET^TM cellular target engagement assay (CELLinib128 assay, CELLinib GmbH, Frankfurt, Germany). […] In none of the 128 kinases MA191 was able to displace the tracer (inhibitor) used by more than 50%, Table S1, Supplementary Information).
(§2) The CELLinib128 assay was performed by CELLinib GmbH, Frankfurt (Germany) as described previously. In brief: Full-length kinase ORF (Promega, Madison, WI, USA) cloned in frame with a NanoLuc-vector was transfected into HEK293T cells in Opti-MEM without phenol red (Life Technologies, Carlsbad, CA, USA) at a density of 2 × 10^5 cells/mL using FuGENE HD (Promega, E2312) and proteins were allowed to express for 20 h. For CDKs, where indicated below, an excess of an activator without an NLuc-fusion was cotransfected. […] The system was allowed to equilibrate at 37 °C for 2 h and 5% CO2 prior to BRET measurements. For PKCs, a chemical activator PMA was added in a final concentration of 1 µM was added together with test compounds and tracers (Promega, V1171). To measure BRET, NanoBRET^TM NanoGlo substrate + extracellular NanoLuc inhibitor (Promega, N2160) were added as per the manufacturer’s protocol, and filtered luminescence was measured (450 nm BP filter (donor) and 610 nm LP filter (acceptor)). For the 1-shot test compounds, data were normalized to the tracer control and the background control or control compound plateau and an average and SD were calculated. […] For the control compounds competitive displacement data were normalized to the tracer Ctrl and the background Ctrl and then plotted and fitted using GraphPad Prism 10 software using a normalized 3-parameter curve fit with the following equation: Y = 100/(1 + 10^X−LogIC50).

BRSK1 = biological target: T2, BRSK1 (Homo sapiens, UniProt Q8TDC3); details: 100% no effect, 0% complete tracer displacement, read-out: Tracer bound
T2 construct: Full-length kinase ORF (Promega, Madison, WI, USA) cloned in frame with a NanoLuc-vector was transfected into HEK293T cells; host or cells: HEK293T
Protocol: as §1, §2

JAK3 = biological target: T3, JAK3 (Homo sapiens, UniProt P52333); details: 100% no effect, 0% complete tracer displacement, read-out: Tracer bound
T3 construct: Full-length kinase ORF (Promega, Madison, WI, USA) cloned in frame with a NanoLuc-vector was transfected into HEK293T cells; host or cells: HEK293T
Protocol: as §1, §2

PHKG1 = biological target: T4, PHKG1 (Homo sapiens, UniProt Q16816); details: 100% no effect, 0% complete tracer displacement, read-out: Tracer bound
T4 construct: Full-length kinase ORF (Promega, Madison, WI, USA) cloned in frame with a NanoLuc-vector was transfected into HEK293T cells; host or cells: HEK293T
T4 sequence (Q16816 whole entry): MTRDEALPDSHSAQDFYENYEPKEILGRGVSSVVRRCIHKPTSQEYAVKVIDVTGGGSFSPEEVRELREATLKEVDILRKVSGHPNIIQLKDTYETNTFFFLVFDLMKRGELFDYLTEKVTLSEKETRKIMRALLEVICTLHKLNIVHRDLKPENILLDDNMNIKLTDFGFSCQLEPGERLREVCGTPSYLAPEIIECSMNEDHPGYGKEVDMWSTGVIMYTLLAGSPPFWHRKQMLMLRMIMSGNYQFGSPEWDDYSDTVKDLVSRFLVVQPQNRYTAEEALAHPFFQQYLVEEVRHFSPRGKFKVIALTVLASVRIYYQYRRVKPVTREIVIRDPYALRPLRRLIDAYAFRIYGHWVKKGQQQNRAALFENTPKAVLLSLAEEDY
Protocol: as §1, §2

MAP4K1 = biological target: T5, MAP4K1 (Homo sapiens, UniProt Q92918); details: 100% no effect, 0% complete tracer displacement, read-out: Tracer bound
T5 construct: Full-length kinase ORF (Promega, Madison, WI, USA) cloned in frame with a NanoLuc-vector was transfected into HEK293T cells; host or cells: HEK293T
Protocol: as §1, §2

STK33 = biological target: T6, STK33 (Homo sapiens, UniProt Q9BYT3); details: 100% no effect, 0% complete tracer displacement, read-out: Tracer bound
T6 construct: Full-length kinase ORF (Promega, Madison, WI, USA) cloned in frame with a NanoLuc-vector was transfected into HEK293T cells; host or cells: HEK293T
Protocol: as §1, §2

CSNK1G2 = biological target: T7, CSNK1G2 (Homo sapiens, UniProt P78368); details: 1 µM; 100% no effect, 0% complete tracer displacement
T7 construct: Full-length kinase ORF (Promega, Madison, WI, USA) cloned in frame with a NanoLuc-vector was transfected into HEK293T cells; host or cells: HEK293T
Protocol: as §1, §2

CDK2-CCNE1 = biological target: T8, CDK2-CCNE1 (Homo sapiens, UniProt P24941); details: 1 µM; 100% no effect, 0% complete tracer displacement
T8 construct: Full-length kinase ORF (Promega, Madison, WI, USA) cloned in frame with a NanoLuc-vector was transfected into HEK293T cells; host or cells: HEK293T
Protocol: as §1, §2

TRKA = biological target: T9, TRKA (Homo sapiens, UniProt P04629); details: 100% no effect, 0% complete tracer displacement, read-out: Tracer bound
T9 construct: Full-length kinase ORF (Promega, Madison, WI, USA) cloned in frame with a NanoLuc-vector; host or cells: HEK293T
Protocol: as §1, §2

STK35 = biological target: T10, STK35 (Homo sapiens, UniProt Q8TDR2); details: 100% no effect, 0% complete tracer displacement, read-out: Tracer bound
T10 construct: Full-length kinase ORF (Promega, Madison, WI, USA) cloned in frame with a NanoLuc-vector was transfected into HEK293T cells; host or cells: HEK293T
T10 sequence (Q8TDR2 whole entry): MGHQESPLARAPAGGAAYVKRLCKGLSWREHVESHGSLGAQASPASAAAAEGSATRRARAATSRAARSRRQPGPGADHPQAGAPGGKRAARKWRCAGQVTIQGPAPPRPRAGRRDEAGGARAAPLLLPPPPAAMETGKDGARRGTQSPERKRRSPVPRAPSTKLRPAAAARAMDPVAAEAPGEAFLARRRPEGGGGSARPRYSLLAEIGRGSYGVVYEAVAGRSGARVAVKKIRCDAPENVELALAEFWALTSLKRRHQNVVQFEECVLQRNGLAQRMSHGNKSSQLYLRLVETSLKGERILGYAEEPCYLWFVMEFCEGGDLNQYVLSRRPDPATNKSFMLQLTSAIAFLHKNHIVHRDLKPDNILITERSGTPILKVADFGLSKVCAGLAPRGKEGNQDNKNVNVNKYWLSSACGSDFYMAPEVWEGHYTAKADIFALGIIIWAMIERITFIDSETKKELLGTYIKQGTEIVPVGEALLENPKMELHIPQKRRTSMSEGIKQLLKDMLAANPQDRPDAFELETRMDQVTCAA
Protocol: as §1, §2

PAK4 = biological target: T11, PAK4 (Homo sapiens, UniProt O96013); details: 100% no effect, 0% complete tracer displacement, read-out: Tracer bound
T11 construct: Full-length kinase ORF (Promega, Madison, WI, USA) cloned in frame with a NanoLuc-vector was transfected into HEK293T cells; host or cells: HEK293T
Protocol: as §1, §2

JAK2 = biological target: T12, JAK2 (Homo sapiens, UniProt O60674); details: 1 µM; 100% no effect, 0% complete tracer displacement
T12 construct: Full-length kinase ORF (Promega, Madison, WI, USA) cloned in frame with a NanoLuc-vector was transfected into HEK293T cells; host or cells: HEK293T
Protocol: as §1, §2

TYK2 = biological target: T13, TYK2 (Homo sapiens, UniProt P29597); details: 1 µM; 100% no effect, 0% complete tracer displacement
T13 construct: Full-length kinase ORF (Promega, Madison, WI, USA) cloned in frame with a NanoLuc-vector; host or cells: HEK293T
Protocol: as §1, §2

FGFR1 = biological target: T14, FGFR1 (Homo sapiens, UniProt P11362); details: 100% no effect, 0% complete tracer displacement, read-out: Tracer bound
T14 construct: Full-length kinase ORF (Promega, Madison, WI, USA) cloned in frame with a NanoLuc-vector was transfected into HEK293T cells; host or cells: HEK293T
Protocol: as §1, §2

ERN2 = biological target: T15, ERN2 (Homo sapiens, UniProt Q76MJ5); details: 100% no effect, 0% complete tracer displacement, read-out: Tracer bound
T15 construct: Full-length kinase ORF (Promega, Madison, WI, USA) cloned in frame with a NanoLuc-vector was transfected into HEK293T cells; host or cells: HEK293T
Protocol: as §1, §2

SNRK = biological target: T16, SNRK (Homo sapiens, UniProt Q9NRH2); details: 100% no effect, 0% complete tracer displacement, read-out: Tracer bound
T16 construct: Full-length kinase ORF (Promega, Madison, WI, USA) cloned in frame with a NanoLuc-vector was transfected into HEK293T cells; host or cells: HEK293T
T16 sequence (Q9NRH2 whole entry): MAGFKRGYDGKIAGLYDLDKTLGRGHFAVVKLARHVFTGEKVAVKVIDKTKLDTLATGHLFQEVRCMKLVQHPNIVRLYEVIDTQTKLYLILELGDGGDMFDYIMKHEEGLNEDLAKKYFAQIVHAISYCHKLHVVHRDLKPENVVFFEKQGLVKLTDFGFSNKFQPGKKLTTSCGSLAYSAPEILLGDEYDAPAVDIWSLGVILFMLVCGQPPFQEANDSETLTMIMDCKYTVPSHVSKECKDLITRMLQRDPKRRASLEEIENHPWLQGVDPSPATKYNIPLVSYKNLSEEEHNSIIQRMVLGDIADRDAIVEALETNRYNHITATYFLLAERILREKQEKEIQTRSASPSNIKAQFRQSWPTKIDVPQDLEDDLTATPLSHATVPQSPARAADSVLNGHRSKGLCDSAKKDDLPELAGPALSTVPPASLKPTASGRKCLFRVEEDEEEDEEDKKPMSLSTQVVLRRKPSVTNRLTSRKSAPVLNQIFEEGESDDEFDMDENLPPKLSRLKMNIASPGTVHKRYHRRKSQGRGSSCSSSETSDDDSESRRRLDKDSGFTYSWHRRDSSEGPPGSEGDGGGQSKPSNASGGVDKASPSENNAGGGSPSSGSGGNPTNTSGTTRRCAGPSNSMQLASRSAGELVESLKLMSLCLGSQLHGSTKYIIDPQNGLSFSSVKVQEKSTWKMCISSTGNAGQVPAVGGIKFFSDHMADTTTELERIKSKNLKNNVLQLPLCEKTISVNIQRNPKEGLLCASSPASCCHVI
Protocol: as §1, §2

EPHA6 = biological target: T17, EPHA6 (Homo sapiens, UniProt Q9UF33); details: 100% no effect, 0% complete tracer displacement, read-out: Tracer bound
T17 construct: Full-length kinase ORF (Promega, Madison, WI, USA) cloned in frame with a NanoLuc-vector was transfected into HEK293T cells; host or cells: HEK293T
T17 sequence (Q9UF33 23-1036): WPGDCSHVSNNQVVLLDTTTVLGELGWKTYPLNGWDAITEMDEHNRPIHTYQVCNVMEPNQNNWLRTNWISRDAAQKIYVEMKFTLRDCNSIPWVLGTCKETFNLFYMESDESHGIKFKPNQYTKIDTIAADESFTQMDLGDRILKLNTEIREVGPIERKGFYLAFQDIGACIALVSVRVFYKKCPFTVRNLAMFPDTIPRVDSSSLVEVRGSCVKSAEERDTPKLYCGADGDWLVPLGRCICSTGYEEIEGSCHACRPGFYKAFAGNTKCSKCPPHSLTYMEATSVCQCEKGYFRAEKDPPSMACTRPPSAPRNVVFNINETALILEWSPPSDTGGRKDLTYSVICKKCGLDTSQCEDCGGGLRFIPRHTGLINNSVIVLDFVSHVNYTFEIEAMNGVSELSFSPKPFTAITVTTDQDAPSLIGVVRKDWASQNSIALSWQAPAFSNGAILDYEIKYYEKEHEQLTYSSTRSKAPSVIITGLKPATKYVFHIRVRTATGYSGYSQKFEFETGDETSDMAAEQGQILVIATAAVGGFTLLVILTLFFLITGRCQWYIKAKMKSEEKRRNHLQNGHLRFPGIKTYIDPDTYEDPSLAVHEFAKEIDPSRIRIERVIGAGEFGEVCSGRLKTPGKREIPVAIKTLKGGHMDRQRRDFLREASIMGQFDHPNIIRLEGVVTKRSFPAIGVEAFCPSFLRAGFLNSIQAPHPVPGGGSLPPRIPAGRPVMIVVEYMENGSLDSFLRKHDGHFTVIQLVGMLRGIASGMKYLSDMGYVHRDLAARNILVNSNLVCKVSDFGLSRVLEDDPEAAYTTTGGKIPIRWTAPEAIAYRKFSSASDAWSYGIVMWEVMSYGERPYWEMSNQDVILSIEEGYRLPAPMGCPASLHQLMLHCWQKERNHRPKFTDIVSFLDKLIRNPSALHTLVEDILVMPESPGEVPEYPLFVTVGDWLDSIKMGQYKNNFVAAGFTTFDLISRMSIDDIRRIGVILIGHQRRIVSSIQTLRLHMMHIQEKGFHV
Protocol: as §1, §2

LATS1 = biological target: T18, LATS1 (Homo sapiens, UniProt O95835); details: 100% no effect, 0% complete tracer displacement, read-out: Tracer bound
T18 construct: Full-length kinase ORF (Promega, Madison, WI, USA) cloned in frame with a NanoLuc-vector was transfected into HEK293T cells; host or cells: HEK293T
Protocol: as §1, §2

RET = biological target: T19, RET (Homo sapiens, UniProt P07949); details: 100% no effect, 0% complete tracer displacement, read-out: Tracer bound
T19 construct: Full-length kinase ORF (Promega, Madison, WI, USA) cloned in frame with a NanoLuc-vector was transfected into HEK293T cells; host or cells: HEK293T
Protocol: as §1, §2

TNK1 = biological target: T20, TNK1 (Homo sapiens, UniProt Q13470); details: 100% no effect, 0% complete tracer displacement, read-out: Tracer bound
T20 construct: Full-length kinase ORF (Promega, Madison, WI, USA) cloned in frame with a NanoLuc-vector; host or cells: HEK293T
Protocol: as §1, §2

HUNK = biological target: T21, HUNK (Homo sapiens, UniProt P57058); details: 100% no effect, 0% complete tracer displacement, read-out: Tracer bound
T21 construct: Full-length kinase ORF (Promega, Madison, WI, USA) cloned in frame with a NanoLuc-vector was transfected into HEK293T cells; host or cells: HEK293T
Protocol: as §1, §2

STK36 = biological target: T22, STK36 (Homo sapiens, UniProt Q9NRP7); details: 100% no effect, 0% complete tracer displacement, read-out: Tracer bound
T22 construct: Full-length kinase ORF (Promega, Madison, WI, USA) cloned in frame with a NanoLuc-vector was transfected into HEK293T cells; host or cells: HEK293T
Protocol: as §1, §2

MAPK9 = biological target: T23, MAPK9 (Homo sapiens, UniProt P45984); details: 1 µM; 100% no effect, 0% complete tracer displacement
T23 construct: Full-length kinase ORF (Promega, Madison, WI, USA) cloned in frame with a NanoLuc-vector was transfected into HEK293T cells; host or cells: HEK293T
Protocol: as §1, §2

SIK1 = biological target: T24, SIK1 (Homo sapiens, UniProt P57059); details: 1 µM; 100% no effect, 0% complete tracer displacement
T24 construct: Full-length kinase ORF (Promega, Madison, WI, USA) cloned in frame with a NanoLuc-vector was transfected into HEK293T cells; host or cells: HEK293T
Protocol: as §1, §2

PRKCE-PMA = biological target: T25, PRKCE-PMA (Homo sapiens, UniProt Q02156); details: 100% no effect, 0% complete tracer displacement, read-out: Tracer bound
T25 construct: Full-length kinase ORF (Promega, Madison, WI, USA) cloned in frame with a NanoLuc-vector was transfected into HEK293T cells; host or cells: HEK293T
Protocol: as §1, §2

ULK2 = biological target: T26, ULK2 (Homo sapiens, UniProt Q8IYT8); details: 100% no effect, 0% complete tracer displacement, read-out: Tracer bound
T26 construct: Full-length kinase ORF (Promega, Madison, WI, USA) cloned in frame with a NanoLuc-vector; host or cells: HEK293T
T26 sequence (Q8IYT8 whole entry): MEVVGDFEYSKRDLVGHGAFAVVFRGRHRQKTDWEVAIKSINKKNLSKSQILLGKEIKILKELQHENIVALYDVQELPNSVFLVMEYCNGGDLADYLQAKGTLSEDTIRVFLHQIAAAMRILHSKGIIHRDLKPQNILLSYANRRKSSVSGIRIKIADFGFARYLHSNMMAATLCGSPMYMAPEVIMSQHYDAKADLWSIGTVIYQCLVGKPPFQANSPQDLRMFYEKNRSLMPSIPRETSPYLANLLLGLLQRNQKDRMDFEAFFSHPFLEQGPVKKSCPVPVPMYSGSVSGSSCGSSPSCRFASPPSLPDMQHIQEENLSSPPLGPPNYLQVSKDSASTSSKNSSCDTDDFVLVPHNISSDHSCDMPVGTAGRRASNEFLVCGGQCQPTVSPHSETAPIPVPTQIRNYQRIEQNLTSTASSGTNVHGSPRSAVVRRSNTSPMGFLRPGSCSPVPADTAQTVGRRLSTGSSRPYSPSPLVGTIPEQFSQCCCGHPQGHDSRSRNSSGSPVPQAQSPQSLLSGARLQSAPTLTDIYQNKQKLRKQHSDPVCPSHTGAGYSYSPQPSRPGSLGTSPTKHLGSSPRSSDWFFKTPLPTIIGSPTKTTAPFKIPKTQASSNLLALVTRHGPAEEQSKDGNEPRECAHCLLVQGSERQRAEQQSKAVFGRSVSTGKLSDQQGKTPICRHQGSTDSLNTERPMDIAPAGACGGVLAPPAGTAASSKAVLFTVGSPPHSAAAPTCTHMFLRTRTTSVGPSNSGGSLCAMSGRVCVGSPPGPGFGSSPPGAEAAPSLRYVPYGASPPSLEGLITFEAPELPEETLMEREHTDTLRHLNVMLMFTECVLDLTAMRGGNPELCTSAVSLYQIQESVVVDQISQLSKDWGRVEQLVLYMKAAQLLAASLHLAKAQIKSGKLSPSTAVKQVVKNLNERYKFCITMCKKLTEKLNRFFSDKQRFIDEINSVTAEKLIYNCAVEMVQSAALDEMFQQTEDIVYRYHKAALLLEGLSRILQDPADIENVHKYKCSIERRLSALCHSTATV
Protocol: as §1, §2

AURKC = biological target: T27, AURKC (Homo sapiens, UniProt Q9UQB9); details: 100% no effect, 0% complete tracer displacement, read-out: Tracer bound
T27 construct: Full-length kinase ORF (Promega, Madison, WI, USA) cloned in frame with a NanoLuc-vector was transfected into HEK293T cells; host or cells: HEK293T
T27 sequence (Q9UQB9 whole entry): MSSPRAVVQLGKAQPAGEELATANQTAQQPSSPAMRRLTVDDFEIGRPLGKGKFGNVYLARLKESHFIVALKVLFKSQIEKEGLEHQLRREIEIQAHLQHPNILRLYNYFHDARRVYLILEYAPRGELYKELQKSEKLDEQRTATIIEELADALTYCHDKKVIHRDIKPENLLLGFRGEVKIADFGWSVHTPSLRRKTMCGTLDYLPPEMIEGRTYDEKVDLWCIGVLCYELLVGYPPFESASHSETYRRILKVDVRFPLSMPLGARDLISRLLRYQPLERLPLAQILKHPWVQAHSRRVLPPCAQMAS
Protocol: as §1, §2

SIK3 = biological target: T28, SIK3 (Homo sapiens, UniProt Q9Y2K2); details: 1 µM; 100% no effect, 0% complete tracer displacement
T28 construct: Full-length kinase ORF (Promega, Madison, WI, USA) cloned in frame with a NanoLuc-vector was transfected into HEK293T cells; host or cells: HEK293T
Protocol: as §1, §2

RPS6KA3 = biological target: T29, RPS6KA3 (Homo sapiens, UniProt P51812); details: 100% no effect, 0% complete tracer displacement, read-out: Tracer bound
T29 construct: Full-length kinase ORF (Promega, Madison, WI, USA) cloned in frame with a NanoLuc-vector was transfected into HEK293T cells; host or cells: HEK293T
T29 sequence (P51812 whole entry): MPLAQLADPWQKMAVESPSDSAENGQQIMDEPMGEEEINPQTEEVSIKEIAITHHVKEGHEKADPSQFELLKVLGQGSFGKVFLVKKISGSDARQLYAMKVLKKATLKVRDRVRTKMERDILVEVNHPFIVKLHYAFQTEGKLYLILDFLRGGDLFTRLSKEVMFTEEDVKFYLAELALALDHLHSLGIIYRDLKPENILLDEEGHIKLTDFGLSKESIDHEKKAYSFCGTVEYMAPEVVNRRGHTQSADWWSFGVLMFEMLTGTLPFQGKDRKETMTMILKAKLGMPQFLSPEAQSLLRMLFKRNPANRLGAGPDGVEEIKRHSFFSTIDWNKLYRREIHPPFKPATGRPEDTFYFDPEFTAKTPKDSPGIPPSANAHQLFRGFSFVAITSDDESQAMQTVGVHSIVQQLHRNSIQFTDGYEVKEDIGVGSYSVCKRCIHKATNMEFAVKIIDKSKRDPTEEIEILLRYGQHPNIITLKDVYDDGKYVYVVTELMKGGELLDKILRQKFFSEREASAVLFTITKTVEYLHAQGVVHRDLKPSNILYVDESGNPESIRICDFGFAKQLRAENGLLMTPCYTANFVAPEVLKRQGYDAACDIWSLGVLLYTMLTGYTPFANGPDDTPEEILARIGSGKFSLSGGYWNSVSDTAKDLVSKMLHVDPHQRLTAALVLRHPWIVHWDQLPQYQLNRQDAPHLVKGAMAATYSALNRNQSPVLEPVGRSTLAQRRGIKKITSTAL
Protocol: as §1, §2

MYLK3 = biological target: T30, MYLK3 (Homo sapiens, UniProt Q32MK0); details: 100% no effect, 0% complete tracer displacement, read-out: Tracer bound
T30 construct: Full-length kinase ORF (Promega, Madison, WI, USA) cloned in frame with a NanoLuc-vector was transfected into HEK293T cells; host or cells: HEK293T
Protocol: as §1, §2

- remaining activity at 1 µM (MAP3K9): 108%
- remaining activity at 1 µM (BRSK1): 107%
- remaining activity at 1 µM (JAK3): 117%
- remaining activity at 1 µM (PHKG1): 93.5%
- remaining activity at 1 µM (MAP4K1): 105%
- remaining activity at 1 µM (STK33): 99%
- Tracer bound (CSNK1G2): 92.4%
- Tracer bound (CDK2-CCNE1): 102.5%
- remaining activity at 1 µM (TRKA): 103%
- remaining activity at 1 µM (STK35): 95.8%
- remaining activity at 1 µM (PAK4): 101%
- Tracer bound (JAK2): 105.7%
- Tracer bound (TYK2): 105.6%
- remaining activity at 1 µM (FGFR1): 103%
- remaining activity at 1 µM (ERN2): 116%
- remaining activity at 1 µM (SNRK): 97%
- remaining activity at 1 µM (EPHA6): 82.5%
- remaining activity at 1 µM (LATS1): 97.8%
- remaining activity at 1 µM (RET): 83.5%
- remaining activity at 1 µM (TNK1): 120%
- remaining activity at 1 µM (HUNK): 103%
- remaining activity at 1 µM (STK36): 119%
- Tracer bound (MAPK9): 101.6%
- Tracer bound (SIK1): 115.0%
- remaining activity at 1 µM (PRKCE-PMA): 78.3%
- remaining activity at 1 µM (ULK2): 98.6%
- remaining activity at 1 µM (AURKC): 110%
- Tracer bound (SIK3): 106.3%
- remaining activity at 1 µM (RPS6KA3): 120%
- remaining activity at 1 µM (MYLK3): 108%
SMILES: Cc1ncsc1-c1ccc([C@H](C)NC(=O)[C@@H]2C[C@@H](O)CN2C(=O)[C@@H](NC(=O)[C@H]2CC[C@H](C(=O)N3CCN(CCNC(=O)c4cc(Oc5ccc(NC(=O)Nc6cc(C(C)(C)C)on6)cc5)ccn4)CC3)CC2)C(C)(C)C)cc1 [MA191, 4-(4-(3-(5-(tert-Butyl)isoxazol-3-yl)ureido)phenoxy)-N-(2-(4-(trans-4-(((S)-1-((2S,4R)-4-hydroxy-2-(((S)-1-(4-(4-methylthiazol-5-yl)phenyl)ethyl)carbamoyl)pyrrolidin-1-yl)-3,3-dimethyl-1-oxobutan-2-yl)carbamoyl)cyclohexanecarbonyl)piperazin-1-yl)ethyl)picolinamide]
